# ± gives the expanded uncertainty stated by the source.
# How the values were obtained:
# [1] = xn = mol fraction of the nth substance listed; details: 101.3 kPa, Liquid
# [2] = excess molar enthalpy (molar enthalpy of mixing); xn = mol fraction of the nth substance listed; details: 318.15 K, 101.3 kPa, Liquid
smiles,measurement,setting,value
CCCCCCCCCC [decane] + COC(=O)OC,mass density,"[1]; 298.15 K, x2 = 0",726.2 ± 0.5 kg/m3
same,mass density,"[1]; 298.15 K, x2 = 0.0043",726.8 ± 0.5 kg/m3
same,mass density,"[1]; 298.15 K, x2 = 0.0235",729.1 ± 0.5 kg/m3
same,mass density,"[1]; 298.15 K, x2 = 0.0888",737.6 ± 0.5 kg/m3
same,mass density,"[1]; 298.15 K, x2 = 0.1363",744.6 ± 0.5 kg/m3
same,mass density,"[1]; 298.15 K, x2 = 0.1922",753.4 ± 0.5 kg/m3
same,mass density,"[1]; 298.15 K, x2 = 0.2402",761.6 ± 0.5 kg/m3
same,mass density,"[1]; 298.15 K, x2 = 0.3348",779.8 ± 0.5 kg/m3
same,mass density,"[1]; 298.15 K, x2 = 0.4201",798.8 ± 0.5 kg/m3
same,mass density,"[1]; 298.15 K, x2 = 0.4876",816 ± 0.5 kg/m3
same,mass density,"[1]; 298.15 K, x2 = 0.5607",837.1 ± 0.5 kg/m3
same,mass density,"[1]; 298.15 K, x2 = 0.6214",856.8 ± 0.5 kg/m3
same,mass density,"[1]; 298.15 K, x2 = 0.6754",876.5 ± 0.5 kg/m3
same,mass density,"[1]; 298.15 K, x2 = 0.7219",895.2 ± 0.5 kg/m3
same,mass density,"[1]; 298.15 K, x2 = 0.7702",916.6 ± 0.5 kg/m3
same,mass density,"[1]; 298.15 K, x2 = 0.8104",936.3 ± 0.5 kg/m3
same,mass density,"[1]; 298.15 K, x2 = 0.8421",953.4 ± 0.5 kg/m3
same,mass density,"[1]; 298.15 K, x2 = 0.8849",978.5 ± 0.5 kg/m3
same,mass density,"[1]; 298.15 K, x2 = 0.9135",997 ± 0.5 kg/m3
same,mass density,"[1]; 298.15 K, x2 = 0.9424",1017.3 ± 0.5 kg/m3
same,mass density,"[1]; 298.15 K, x2 = 0.9709",1039 ± 0.5 kg/m3
same,mass density,"[1]; 303.15 K, x2 = 0",722.3 ± 0.5 kg/m3
same,mass density,"[1]; 303.15 K, x2 = 0.0489",728.4 ± 0.5 kg/m3
same,mass density,"[1]; 303.15 K, x2 = 0.0996",735.2 ± 0.5 kg/m3
same,mass density,"[1]; 303.15 K, x2 = 0.1998",750.3 ± 0.5 kg/m3
same,mass density,"[1]; 303.15 K, x2 = 0.299",768.1 ± 0.5 kg/m3
same,mass density,"[1]; 303.15 K, x2 = 0.3991",789.2 ± 0.5 kg/m3
same,mass density,"[1]; 303.15 K, x2 = 0.4992",814.3 ± 0.5 kg/m3
same,mass density,"[1]; 303.15 K, x2 = 0.6023",845.3 ± 0.5 kg/m3
same,mass density,"[1]; 303.15 K, x2 = 0.7013",881.5 ± 0.5 kg/m3
same,mass density,"[1]; 303.15 K, x2 = 0.8008",925.9 ± 0.5 kg/m3
same,mass density,"[1]; 303.15 K, x2 = 0.9012",982.6 ± 0.5 kg/m3
same,mass density,"[1]; 303.15 K, x2 = 0.9505",1016.6 ± 0.5 kg/m3
same,mass density,"[1]; 313.15 K, x2 = 0",714.7 ± 0.5 kg/m3
same,mass density,"[1]; 313.15 K, x2 = 0.0489",720.6 ± 0.5 kg/m3
same,mass density,"[1]; 313.15 K, x2 = 0.0996",727.2 ± 0.5 kg/m3
same,mass density,"[1]; 313.15 K, x2 = 0.1998",742 ± 0.5 kg/m3
same,mass density,"[1]; 313.15 K, x2 = 0.299",759.4 ± 0.5 kg/m3
same,mass density,"[1]; 313.15 K, x2 = 0.3991",780.1 ± 0.5 kg/m3
same,mass density,"[1]; 313.15 K, x2 = 0.4992",804.7 ± 0.5 kg/m3
same,mass density,"[1]; 313.15 K, x2 = 0.6023",835.2 ± 0.5 kg/m3
same,mass density,"[1]; 313.15 K, x2 = 0.7013",870.6 ± 0.5 kg/m3
same,mass density,"[1]; 313.15 K, x2 = 0.8008",914.4 ± 0.5 kg/m3
same,mass density,"[1]; 313.15 K, x2 = 0.9012",970.3 ± 0.5 kg/m3
same,mass density,"[1]; 313.15 K, x2 = 0.9505",1003.6 ± 0.5 kg/m3
same,mass density,"[1]; 318.15 K, x2 = 0",710.9 ± 0.5 kg/m3
same,mass density,"[1]; 318.15 K, x2 = 0.0902",722.1 ± 0.5 kg/m3
same,mass density,"[1]; 318.15 K, x2 = 0.1142",725.4 ± 0.5 kg/m3
same,mass density,"[1]; 318.15 K, x2 = 0.1922",736.9 ± 0.5 kg/m3
same,mass density,"[1]; 318.15 K, x2 = 0.3283",760.8 ± 0.5 kg/m3
same,mass density,"[1]; 318.15 K, x2 = 0.4184",780 ± 0.5 kg/m3
same,mass density,"[1]; 318.15 K, x2 = 0.4855",796.3 ± 0.5 kg/m3
same,mass density,"[1]; 318.15 K, x2 = 0.4962",799.1 ± 0.5 kg/m3
same,mass density,"[1]; 318.15 K, x2 = 0.5666",818.8 ± 0.5 kg/m3
same,mass density,"[1]; 318.15 K, x2 = 0.6142",833.9 ± 0.5 kg/m3
same,mass density,"[1]; 318.15 K, x2 = 0.6732",854.3 ± 0.5 kg/m3
same,mass density,"[1]; 318.15 K, x2 = 0.728",875.8 ± 0.5 kg/m3
same,mass density,"[1]; 318.15 K, x2 = 0.7735",895.6 ± 0.5 kg/m3
same,mass density,"[1]; 318.15 K, x2 = 0.8087",912.6 ± 0.5 kg/m3
same,mass density,"[1]; 318.15 K, x2 = 0.8503",934.4 ± 0.5 kg/m3
same,mass density,"[1]; 318.15 K, x2 = 0.8944",960.1 ± 0.5 kg/m3
same,mass density,"[1]; 318.15 K, x2 = 0.9252",980 ± 0.5 kg/m3
same,mass density,"[1]; 318.15 K, x2 = 0.9473",995.6 ± 0.5 kg/m3
same,mass density,"[1]; 318.15 K, x2 = 0.9768",1017.9 ± 0.5 kg/m3
same,excess molar enthalpy,[2]; x2 = 0,0 ± 0.000478 kcal/mol
same,excess molar enthalpy,[2]; x2 = 0.0948,0.19 ± 0.0043 kcal/mol
same,excess molar enthalpy,[2]; x2 = 0.1964,0.341 ± 0.00741 kcal/mol
same,excess molar enthalpy,[2]; x2 = 0.29,0.453 ± 0.00956 kcal/mol
same,excess molar enthalpy,[2]; x2 = 0.3757,0.524 ± 0.011 kcal/mol
same,excess molar enthalpy,[2]; x2 = 0.4516,0.561 ± 0.0117 kcal/mol
same,excess molar enthalpy,[2]; x2 = 0.5089,0.572 ± 0.012 kcal/mol
same,excess molar enthalpy,[2]; x2 = 0.5556,0.573 ± 0.012 kcal/mol
same,excess molar enthalpy,[2]; x2 = 0.5944,0.568 ± 0.012 kcal/mol
same,excess molar enthalpy,[2]; x2 = 0.6291,0.56 ± 0.0117 kcal/mol
same,excess molar enthalpy,[2]; x2 = 0.6358,0.556 ± 0.0117 kcal/mol
same,excess molar enthalpy,[2]; x2 = 0.6748,0.539 ± 0.0112 kcal/mol
same,excess molar enthalpy,[2]; x2 = 0.7141,0.518 ± 0.0108 kcal/mol
same,excess molar enthalpy,[2]; x2 = 0.7558,0.484 ± 0.0103 kcal/mol
same,excess molar enthalpy,[2]; x2 = 0.7914,0.445 ± 0.00932 kcal/mol
same,excess molar enthalpy,[2]; x2 = 0.8294,0.393 ± 0.00837 kcal/mol
same,excess molar enthalpy,[2]; x2 = 0.8725,0.33 ± 0.00717 kcal/mol
same,excess molar enthalpy,[2]; x2 = 0.9085,0.255 ± 0.0055 kcal/mol
same,excess molar enthalpy,[2]; x2 = 0.9429,0.174 ± 0.00406 kcal/mol
same,excess molar enthalpy,[2]; x2 = 0.9788,0.0741 ± 0.00191 kcal/mol

# Reference: the NIST ThermoML archive (doi:10.1021/je0301794)
